Measurements from publication PMC6838683, “Discovery of Human Signaling Systems: Pairing Peptides to G Protein-Coupled Receptors” (Cell, 2019).
Read-outs that look alike come from different tables or passages of the source. No end group written: not given here.

Legend:
GPR15 (human) = target: T1, GPR15 (human) (UniProt P49685)
T1 sequence: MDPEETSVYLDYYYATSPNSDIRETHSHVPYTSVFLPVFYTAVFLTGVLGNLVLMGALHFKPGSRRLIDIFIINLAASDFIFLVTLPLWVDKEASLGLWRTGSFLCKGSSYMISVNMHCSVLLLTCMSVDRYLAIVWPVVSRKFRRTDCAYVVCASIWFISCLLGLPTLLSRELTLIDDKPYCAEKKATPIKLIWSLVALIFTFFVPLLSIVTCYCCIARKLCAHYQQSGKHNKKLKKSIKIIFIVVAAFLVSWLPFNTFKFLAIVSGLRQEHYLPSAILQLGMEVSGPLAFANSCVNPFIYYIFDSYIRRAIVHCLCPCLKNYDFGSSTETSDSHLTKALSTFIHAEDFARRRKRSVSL

GPR32 = experiment: Repeat of proposed literature pairing (mass redistribution and/or internalization); type: cell-based, human
Source text: (§1) DMR assays provide a single integrated readout of ligand-dependent cellular response, utilizing an optical biosensor in specialized microplates to detect wavelength shifts of reflected light as it passes through the biosensor and the lower portion of the cell (∼150-200 nm). As a signal pathway agnostic approach, DMR assays are well-suited to the study of GPCRs ([Fang et al., 2008], [Schröder et al., 2011]). The mass redistribution response (Δ picometer (pm)) likely reflects a number of intracellular events, including cytoskeletal rearrangement, protein trafficking and receptor internalization. Orphan receptor-expressing cells were gently washed twice with assay buffer (HBSS with 1 mM CaCl2, 1 mM MgCl2, 20 mM HEPES, 0.01% pluronic F-68, pH 7.4) containing 0.1% DMSO and cells were equilibrated for 90 min at 22°C in the EPIC Benchtop (BT) System (Corning) to establish a stable DMR signal. After 3-5 min baseline recordings, peptides (10 μM) were added in duplicate wells using an electronic 384-channel Viaflo pipette (Integra Biosciences, Switzerland) and DMR responses were measured for 60 min at 22°C. 100 nM norepinephrine was included as an internal assay control to assess the cellular DMR response via endogenously-expressed adrenoceptors in the TREx 293 cells. Real-time data were processed using the BT to column converter MS-Excel macro (Corning) and analyzed in GraphPad Prism 7.0. DMR recordings in peptide screening experiments were buffer and solvent corrected and the area under the curve (AUC) was quantified. For subsequent validation experiments, peptides were diluted in assay buffer containing 0.1% DMSO and DMR assays were performed as above. […] Data represent mean ± standard error of the mean (SEM) from at least 3 biologically independent experiments.
(§2) A TR-FRET real-time internalization assay was used to examine peptide-dependent changes in orphan receptor localization as described previously ([Foster and Bräuner-Osborne, 2018]). Surface-expressed SNAP-tagged receptors were labeled with a cell-impermeable luminescent terbium cryptate (100 nM SNAP Lumi4-Tb; Cisbio, France) for 1 hr at 37°C. Cells were washed to remove excess terbium and incubated with fluorescein-O-acetic acid (100 μM; Sigma Aldrich) for 5 min at 37°C. Peptides were added as for DMR assays, and internalization responses were recorded for 60 min at 37°C using an EnVision 2104 Multimode plate reader (PerkinElmer). 100 nM GLP-1 was used as a positive control for SNAP-GLP1R internalization. Real-time internalization responses were calculated based on TR-FRET (excitation 340 nm; emission 520 nm and 615 nm), and were expressed as the ratio between donor (terbium) and acceptor (fluorescein) emission. For peptide screening analysis (both DMR and internalization assays), we calculated the area under the curve from the real-time traces. As the magnitude of the responses was variable between orphan receptor targets, particularly for the SNAP-tag based internalization assay where the signal is dependent on receptor surface expression, the AUC values were normalized to their respective plate averages and expressed as fold change. Validation experiments for receptor internalization were performed as above. Internalization data was processed in MS-Excel and area under the curve was used to generate concentration-response curves using GraphPad Prism 7.0. Data represent mean ± standard error of the mean (SEM) from at least 3 biologically independent experiments.

human GPCRs = system: human GPCRs; design: method as in Guide to Pharmacology database; settings: max reported value, ref Guide to Pharmacology database, cited from earlier work
Source text: Supplement mmc1.xlsx, sheet "HumanGPCRLigands" | column: pKi_value; pKd_value; pEC50_value; pIC50_value

[1] = target: T2, melanocortin MC4 receptor (Homo sapiens, UniProt P32245); experiment: β-arrestin recruitment (Tango), known peptide receptors; type: cell-based; settings: MC4R; mean, n = 3
T2 construct: host or cells: HTLA cells (HEK293-derived)
Description: (§3) The peptide library was additionally screened against 120 GPCR targets in parallel, including all available orphan receptors and 27 known class A peptide receptors using the Tango assay platform ([Kroeze et al., 2015]). Briefly, HTLA cells (a HEK293 cell line stably expressing a tTA-dependent luciferase reporter and a β-arrestin2-TEV fusion gene) were plated 10,000 cells/well in poly-L-lysine–coated clear-bottom white 384-well plates in DMEM supplemented with 10% FBS, 100 U/ml penicillin and 100 μg/ml streptomycin, 2 μg/ml puromycin and 100 μg/ml hygromycin B. 24 hr later, cells were transfected with Tango GPCR constructs using the calcium phosphate method ([Jordan et al., 1996]). The next day, culture medium was changed to DMEM + 1% dFBS and 10 μM peptides were added for overnight stimulation. Bright-Glo solution (Promega) was incubated for 15–20 min at room temperature, and luminescence was counted using a Trilux luminescence counter (Wallac).
(§4) For subsequent peptide validation experiments using Tango assays, HTLA cells were transiently transfected in 10 cm dishes with the receptor of interest using polyethylenimine (PEI) ([Longo et al., 2013]). After 24 hr, 25,000 cells/well were plated in clear bottom, white-walled 384-well plates. Assays were performed as described above, with luminescence measured using an EnSpire 2300 Multimode plate reader (PerkinElmer). Luminescence counts were exported into Excel and were analyzed using GraphPad Prism 7.

NPFF2 = experiment: as above; type: cell-based, human; settings: endogenous ligand(s) included in peptide library
Source text: Supplement mmc6.xlsx, sheet "Peptide GPCR controls" | column: Confirmed?

GPR83 = experiment: Repeat of proposed literature pairing (mass redistribution and/or internalization); type: cell-based, human
Source text: as §1, §2

GPR176 = target: T3, GPR176 (Homo sapiens, UniProt Q14439); experiment: β-arrestin recruitment (Tango), indicative pairing; type: cell-based; settings: mean, n = 3
T3 construct: host or cells: HTLA cells (HEK293-derived)
T3 sequence (Q14439 1-515): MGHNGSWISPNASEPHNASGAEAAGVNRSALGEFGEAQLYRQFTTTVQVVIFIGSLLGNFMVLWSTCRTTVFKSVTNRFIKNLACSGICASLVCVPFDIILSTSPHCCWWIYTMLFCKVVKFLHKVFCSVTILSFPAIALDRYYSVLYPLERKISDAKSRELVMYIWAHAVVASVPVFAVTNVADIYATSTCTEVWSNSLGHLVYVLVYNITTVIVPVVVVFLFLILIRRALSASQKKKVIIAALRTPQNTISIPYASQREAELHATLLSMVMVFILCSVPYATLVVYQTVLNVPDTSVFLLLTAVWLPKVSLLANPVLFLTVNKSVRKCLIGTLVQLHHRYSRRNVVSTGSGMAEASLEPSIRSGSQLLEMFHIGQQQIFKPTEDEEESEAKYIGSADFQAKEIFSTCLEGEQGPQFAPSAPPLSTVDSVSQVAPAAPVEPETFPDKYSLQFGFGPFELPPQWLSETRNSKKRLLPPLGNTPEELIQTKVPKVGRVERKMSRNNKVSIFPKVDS
Description: as §3, §4

GPR19 = experiment: Repeat of proposed literature pairing (mass redistribution and/or internalization); type: cell-based, human
GPR151 = experiment: as above; type: cell-based, human
Source text: as §1, §2

P2RY10 = experiment: as above; type: cell-based, human; settings: for receptor-dependent activation by proposed ligand, P2RY10: repeat of literature pairing across multiple assays, Figure S7A, Tables S5 and S7
Source text: as §1, §2

GPR37 = experiment: as above; type: cell-based, human
Source text: as §1, §2

GPR37L1 = experiment: as above; type: cell-based, human
Source text: as §1, §2

[2] = repeat of literature pairing, Figure S7A, Tables S5 and S7
[3] = receptor galr1_human (GALR1, P47211)
[4] = receptor galr2_human (GALR2, O43603)
[5] = receptor galr3_human (GALR3, O60755)

T2 sequence (P32245 whole entry): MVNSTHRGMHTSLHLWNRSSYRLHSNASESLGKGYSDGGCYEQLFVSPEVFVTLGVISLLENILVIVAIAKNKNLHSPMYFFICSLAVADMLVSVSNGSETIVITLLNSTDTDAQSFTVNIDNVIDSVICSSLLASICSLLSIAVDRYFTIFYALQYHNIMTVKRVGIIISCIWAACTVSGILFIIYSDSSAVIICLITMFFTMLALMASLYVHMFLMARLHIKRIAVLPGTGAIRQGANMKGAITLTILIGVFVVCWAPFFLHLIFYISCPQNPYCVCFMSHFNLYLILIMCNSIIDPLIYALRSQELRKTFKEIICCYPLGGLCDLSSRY

Molecule: 45-amino acid cleavage variant of GPR15L (peptide)
- fold improved potency at GPR15 against the 11-amino acid peptide 64 (assay not given) (GPR15 (human)): 10 fold

Molecule: CC/C=C\C[C@H](O)/C=C/C=C\C=C\C=C\[C@@H](O)[C@@H](O)C/C=C\CCC(=O)O [RvD1]
- Lipid pairing for orphan receptor GPR32 (confirmed/unconfirmed) (GPR32; repeat of literature pairing): Unconfirmed lipid pairings for orphans

Molecule: CC/C=C\C[C@H](O)/C=C/C=C\C=C\C=C\[C@@H](O)[C@@H](O)C/C=C\CCC(=O)O [resolvin D1]
- receptor-dependent activation by proposed ligand, GPR32 (GPR32; [2]): no activity
- Comment (response in DMR / internalization assays) (GPR32; target GPR32): No response in any assay
- Active in DMR/internalization (GPR32; target GPR32, reported ligand tested on receptor-expressing cell line): No
- pEC50_value (human GPCRs; receptor fpr2_human (FPR2, P25090)): 11.9
- pEC50_value (human GPCRs; receptor gpr32_human (GPR32), Class A orphans): 11.1

Molecule: ELEGEQPDGLEHVLEPDTEKADGPYRVEHFRWGNPPKD [Peptide 205]
- Emax, Tango (fold over basal) [1]: 4.9 fold over basal
- pEC50, Tango (fold over basal) [1]: 6.21

Molecule: HSQGTFTSDYSKYLDS [Peptide 110]
- Emax, Tango (fold over basal) [1]: 4.2 fold over basal
- pEC50, Tango (fold over basal) [1]: 5.93

Molecule: Neuropeptide NPVF; RFRP-3
- Confirmed? (confirmation of b-arrestin recruitment) (NPFF2): No

Molecule: PEN: neuroendocrine peptide PEN, proposed GPR83 ligand (AADHDVGSELPPEGVLGALLRV)
- Peptide pairing for orphan receptor GPR83 (confirmed/unconfirmed) (GPR83; repeat of literature pairing): Confirmed peptide pairings for orphans
- receptor-dependent activation by proposed ligand, GPR83 (GPR83; repeat of literature pairing across multiple assays, Figure S7A, Tables S5 and S7): selective receptor-dependent activation
- Comment (response in DMR / internalization / Tango assays) (GPR83; target GPR83): PEN is included in library (peptide 146) and was purchased separately. Active in DMR, inactive in internalization, but also active in Tango
- Active in DMR/internalization (GPR83; target GPR83, reported ligand tested on receptor-expressing cell line): Yes (DMR)

Molecule: RSVNPYLQ [Peptide 32]
- Emax, Tango (fold over basal) (GPR176): 2.3 fold over basal
- pEC50, Tango (fold over basal) (GPR176): 5.82

Molecule: adropin (CHSRSADVDSLSESSPNSSPGPCPEKAPPPQKPSHEGSYLLQP; not fully specified; cysteine pairing not given here; UniProt Q6UWT2 34-76, looked up) [proposed GPR19 ligand]
- Peptide pairing for orphan receptor GPR19 (confirmed/unconfirmed) (GPR19; repeat of literature pairing): Unconfirmed peptide pairings for orphans
- receptor-dependent activation by proposed ligand, GPR19 (GPR19; [2]): no activity
- Comment (response in DMR / internalization assays) (GPR19; target GPR19): No response in any assay
- Active in DMR/internalization (GPR19; target GPR19, reported ligand tested on receptor-expressing cell line): No

Molecule: galanin [reference compound]
- Peptide pairing for orphan receptor GPR151 (confirmed/unconfirmed) (GPR151; repeat of literature pairing): Unconfirmed peptide pairings for orphans
- receptor-dependent activation by proposed ligand, GPR151 (GPR151; [2]): no activity
- Comment (response in DMR / internalization assays) (GPR151; target GPR151): Galanin is included in library (peptide 177) and was purchased separately. No response in any assay.
- Active in DMR/internalization (GPR151; target GPR151, reported ligand tested on receptor-expressing cell line): No
- pIC50_value (human GPCRs; [3]): 9.9
- pKi_value (human GPCRs; [3]): 10.5
- pEC50_value (human GPCRs; [4]): 9.1
- pIC50_value (human GPCRs; [4]): 9.3
- pKi_value (human GPCRs; [4]): 9.1
- pIC50_value (human GPCRs; [5]): 7.1
- pKi_value (human GPCRs; [5]): 7.2

Molecule: lysophosphatidic acid
- receptor-dependent activation by proposed ligand, P2RY10 (P2RY10): no activity

Molecule: lysophosphatidylserine [LPS]
- Lipid pairing for orphan receptor P2RY10 (confirmed/unconfirmed) (P2RY10; repeat of literature pairing): Confirmed lipid pairings for orphans
- receptor-dependent activation by proposed ligand, P2RY10 (P2RY10): selective receptor-dependent activation
- receptor-dependent activation by proposed ligand, P2RY10 (P2RY10; listed as lysophosphatidylserine): marginal
- pEC50_value (human GPCRs; receptor gp174_human (GPR174), Class A orphans): 7.1
- pEC50_value (human GPCRs; receptor gpr34_human (GPR34), Class A orphans): 6.9

Molecule: peptide 64 (GPR15L_(47-57))
- pEC50 of reduced cyclic AMP (cAMP) production (Gi/o) (GPR15 (human)): 6.72 pEC50

Molecule: prosaptide
- Peptide pairing for orphan receptor GPR37 (confirmed/unconfirmed) (GPR37; repeat of literature pairing): Unconfirmed peptide pairings for orphans
- receptor-dependent activation by proposed ligand, GPR37 (GPR37; [2]): no activity
- Comment (response in DMR / internalization assays) (GPR37; target GPR37): No response in any assay
- Active in DMR/internalization (GPR37; target GPR37, reported ligand tested on receptor-expressing cell line): No
- Peptide pairing for orphan receptor GPR37L1 (confirmed/unconfirmed) (GPR37L1; repeat of literature pairing): Unconfirmed peptide pairings for orphans
- receptor-dependent activation by proposed ligand, GPR37L1 (GPR37L1; [2]): no activity
- Comment (response in DMR / internalization assays) (GPR37L1; target GPR37L1): No response in any assay
- Active in DMR/internalization (GPR37L1; target GPR37L1, reported ligand tested on receptor-expressing cell line): No

B1: GPR15L (ligand)
peptide: KRRPAKAWSGRRTRLCCHRVPSPNSTNLKGHHVRLCKPCKLEPEPRLWVVPGALPQV
modifications: disulfide (positions not given here)
- fold improved potency at GPR15 against the 11-amino acid peptide 64 (assay not given) (GPR15 (human)): 100 fold
